Source: US12344603B2 (Genentech, Inc., priority 2020, dated 2025)

Molecular target: IRE1α (Homo sapiens (Human), UniProt O75460, D688N)
Assay: IRE1α TR-FRET competition binding assay (IRE1α HTRF)
Settings: TR-FRET competition binding to kinase domain of IRE1α
Summary of the method: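 Kinase domain (0.25 nM) pre-bound to 2 nM Eu anti-His antibody for 1 h at 4° C in HEPES pH 7.5/MgCl2/Brij 35/DTT/gamma globulin buffer, then mixed with compounds and 2 nM Alexa 647 ATP-competitive probe. 1 h at room temperature; probe displacement read as TR-FRET (Ex 347 nm, Em 665/615 nm).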

IRE1α, sequence (O75460 547-977 D688N): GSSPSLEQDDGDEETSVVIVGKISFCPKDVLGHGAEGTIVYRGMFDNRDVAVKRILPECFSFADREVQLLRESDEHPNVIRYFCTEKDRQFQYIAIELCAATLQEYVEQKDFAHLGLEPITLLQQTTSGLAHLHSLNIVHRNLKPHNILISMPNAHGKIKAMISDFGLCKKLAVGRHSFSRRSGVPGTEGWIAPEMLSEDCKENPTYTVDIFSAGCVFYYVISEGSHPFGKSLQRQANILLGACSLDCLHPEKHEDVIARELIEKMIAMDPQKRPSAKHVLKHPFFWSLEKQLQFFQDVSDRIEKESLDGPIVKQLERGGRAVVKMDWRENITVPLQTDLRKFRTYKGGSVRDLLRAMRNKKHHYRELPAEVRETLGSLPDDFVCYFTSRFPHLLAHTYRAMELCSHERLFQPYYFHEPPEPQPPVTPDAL

In the case of CC(C)n1c(=O)c(-c2ccc(NS(=O)(=O)N3CCCC3)c(F)c2)nc2cnc(N[C@@H]3CNC[C@@H](F)C3)nc21 [Compound 163, N-(2-Fluoro-4-(2-(((3S,5S)-5-fluoropiperidin-3-yl)amino)-8-isopropyl-7-oxo-7,8-dihydropteridin-6-yl)phenyl)pyrrolidine-1-sulfonamide], the IC50 is reported as 0.97 nM.
